These results are taken from patent US9303062B2, “Solid oxidized glutathione salt and method for producing same” (priority 2011, dated 2016).

Series [1] in a line: Deliquescency of powder at 25° C., normal pressure, 75% RH, observed with naked eyes. The series is classed as physicochemical. The conditions noted are these: relative humidity 75% RH. Here is the method: The solid oxidized glutathione salt obtained as described above has low deliquescency and high water solubility. The deliquescency of the solid oxidized glutathione can be evaluated by allowing a powder of the salt to stand in an environment at a temperature of 25° C., normal pressure, e.g. 1 atmospheric pressure, and a relative humidity of 75% RH, and observing whether deliquescence starts or not with naked eyes.
Each of the powders of the solid-state oxidized glutathione salt obtained in the above respective Examples was allowed to stand in atmospheric condition of a temperature of 25° C., normal pressure and a relative humidity of 75% RH. After 2 hours or 24 hours, it was determined whether or not deliquescence was is present by observing the occurrence of shape change with naked eyes. For comparison, the deliquescencies of the above commercially available solid oxidized glutathiones were investigated in the same manner.

Series [2] in a line: Solubility in water at 25° C. under normal pressure. Format: physicochemical. The note with it: supernatant by HPLC. Here is the method: The solubility of the solid oxidized glutathione salt of the present invention in water at temperature of 25° C. can be calculated according to the following formula, and the solubility is, for example, 10 mass % or more, preferably 20 mass % or more, and more preferably 30 mass % or more.
Solubility (%)=mass of dissolved oxidized glutathione/(mass of water+mass of dissolved oxidized glutathione)×100
Evaluation 1: Solubility in water at 25° C. under normal pressure and deliquescency of oxidized glutathione salt
Each of the powders of the solid-state oxidized glutathione salt obtained in the above respective Examples was dissolved in water until the powder was not further dissolved. After each slurry was stirred for 30 minutes or longer, the supernatant was obtained and the concentrations of each oxidized glutathione and salt were calculated using HPLC. For comparison, the solubilities of the following conventionally known solid oxidized glutathiones were investigated in the same manner as the above.

As to “oxidized glutathione hemicalcium salt [Example 6]”, the “Deliquescency 2 hours” value in series [1] (after 2 hours) is “no”. For the same substance, the “Deliquescency 24 hours” value in series [1] (after 24 hours) is given as “no”. Besides, the Solubility in series [2] is 58 mass %.
“oxidized glutathione monoammonium salt [Example 2]” registered a Solubility in series [2] of 34.8 mass %.
